The test system of series [1] is normal Wistar rats given a normal chow diet. Nature of the series: In vivo study: isosteviol treatment of normal Wistar rats on chow diet for 20 weeks (groups 1 and 2). To be noted: for plasma HDL-cholesterol level increase, Δ in %: chow diet + isosteviol 0.03 g/kg/day. From the text: (§1) 44 normal wistar rats at the age of about 6 weeks and a bodyweight of about 230 g, was randomised into 4 groups, with 11 in each group. Group 1 and 2 were fed with standard chow diet±Isosteviol (0.03 g/kg/day). Group 3 and 4 were diet induced to be hyperlipidemic by feeding with a high cholesterol containing diet (1.63% g cholesterol, 0.41% g Cholic acid, 16.3% g sunflower oil)±Isosteviol (0.03 g/kg/day). In the experiment was used Isosteviol with a purity of 99.4%. The treatment period was 20 weeks.
(§2) Blood samples were analyzed for hormones and lipids at the start and end of the study. The blood samples were taken from the tail or eye into glasses containing heparine/aprotinin. The samples were centrifuged and the plasma was frozen. The following were analyzed: total fasting plasma triglyceride level, total plasma cholesterol level, and plasma HDL-cholesterol level. Liver samples were analysed for mRNA expression of genes like SREBP-1, which have relation to the fat metabolism. The body weight was measured throughout the study period together with the food intake.
(§3) The fasting total plasma cholesterol level and the HDL-cholesterol level were measured by an enzymatic colorimetric test, the “cholesterol CHOD-PAP” method (cholesterol oxidase±phenol 4 amino phenazon), based on Trinder, using commercially available test kits (Roche Diagnostics, Basel, Germany), and the Cobas Mira instrument (Roche Diagnostics). The fasting plasma triglyceride level was measured by the enzymatic colorimetric GPO-PAP method (Glycerol phosphate oxidase±phenol 4 amino phenazon), based on Trinder, using commercially available test kits (Roche Diagnostics, Basel, Germany), and the Cobas Mira instrument (Roche Diagnostics).
(§4) Data are expressed as means±standard error of the mean (SEM). Statistical significance between two groups was evaluated using a two-tailed t test. A p value of less than 0.05 was considered statistically significant. For statistical analysis were used student t-tests and two way ANOVA-tests.
(§5) The setup differs from the setup in Example 1 by the use of non-diabetic rats versus the diabetic hyperlipidemic KKAY mouse model. In the present study the effect on HDL is investigated by comparing rats with a normal cholesterol level with rats having a diet induced elevated plasma cholesterol level.

In the next series the test system is KKAy mice. Nature of the series: In vivo study: isosteviol treatment of KKAy mice for 9 weeks (plasma lipids, body weight, food intake). On the procedure:
Twenty male KKAy-mice (Clea Japan, Tokyo, Japan), all 5 week-old, weighing 22-25 g were randomized to 2 groups and treated for 9 weeks with; A: standard chow diet (control); B: standard chow diet+20 mg/kg BW of ISV. As a non-diabetic control group (C), ten normal C57BL-mice (Taconic, Ry, Denmark) were fed with standard chow diet (control to A), see FIG. 2 for outline of the study. The food intake was measured halfway through the study. The composition of the standard chow diet dry matter was: Protein 24%, carbohydrate 71%, and Lipids 5%. The drug isosteviol (ISV, ent-16-ketobeyeran-19-oic acid; Wako Pure Chemical Industries, Osaka, Japan) was incorporated in the mice food pellet and administered orally. The Danish Council for Animal experiments has approved the study.
Hormones and lipids were measured from blood sample at start and end of the treatment period. Blood sample was taken from the tail of the animals on chilled tubes containing heparin/aprotinin and centrifuged (4000 g, 60 seconds, 4° C.), and plasma was frozen for subsequent analysis of insulin, glucose, triglycerides, total cholesterol and HDL-cholesterol. Fasting blood glucose, as well as bodyweight (BW), was measured before and after intervention.
Plasma blood glucose was determined using the glucose oxidase method (GOD-PAP, Boehringer Mannheim, GmbH Germany). Insulin was determined by radioimmunoassay with a guinea pig antiporcine insulin antibody (PNILGP4, Novo Nordisk, Bagsvaerd, Denmark), and mono-[^125I]-(TyrA14) labeled human insulin (Novo Nordisk) as tracer and rat insulin (Novo Nordisk) as standard. We separated free and bound radioactivity using ethanol (See Heding L. G. Determination of total serum insulin (IRI) in insulin-treated diabetic patients; Diabetologia 1972; 8:260-266). Interassay and intra-assay variation was below 10%. […] The fasting plasma triglyceride level was measured by the enzymatic colorimetric GPO-PAP method (Glycerol phosphate oxidase±phenol 4 amino phenazon), based on Trinder, using commercially available test kits (Roche Diagnostics, Basel, Germany), and the Cobas Mira instrument (Roche Diagnostics). The fasting total plasma cholesterol level and the HDL-cholesterol level were measured by an enzymatic colorimetric test, the “cholesterol CHOD-PAP” method (cholesterol oxidase±phenol 4 amino phenazon), based on Trinder, using commercially available test kits (Roche Diagnostics, Basel, Germany), and the Cobas Mira instrument (Roche Diagnostics).
Data are expressed as means±standard error of the mean (SEM). Statistical significance between two groups was evaluated using a two-tailed t test. A p value of less than 0.05 was considered statistically significant. For plasma glucose calculations, analysis of covariance with adjustment for end body weight was performed.

The test system of series [2] is normal Wistar rats given a high fat diet. In words: In vivo study: isosteviol treatment of normal Wistar rats on high fat diet for 20 weeks (groups 3 and 4). The following applies: for plasma HDL-cholesterol level increase, Δ in %: high fat diet + isosteviol 0.03 g/kg/day.
Description: as §1, §2, §3, §4, §5

Series [3] deals with patients at high risk for coronary events. The following applies: phase 3 clinical trial, active treatment group; trial terminated; cited from earlier work.
The mark [4] stands for this setting: Chow +Isosteviol, end (20 weeks).
[5] abbreviates: Chow +Isosteviol, start of study.
The mark [6] stands for this setting: start to end (20 weeks), listed as Isosteviol.
Setting [7] is: chow diet + isosteviol, start to end (20 weeks).
[8] abbreviates: comparing group 2 with group 1 at the end of the study period.
[9] abbreviates: group 2, chow + isosteviol, start to end (20 weeks).
Setting [10] is: KKAy mice, 20 mg/kg BW/day, after 9 weeks, n=10, in mM.
Where [11] appears, read: High fat +Isosteviol, end (20 weeks).
[12] abbreviates: High fat +Isosteviol, start of study.
Where [13] appears, read: High fat +Isosteviol, start to end.
Setting [14] is: high fat diet + isosteviol, start to end (20 weeks).

Turning to `C[C@@]12CC[C@@H]3[C@@](CC[C@H]4[C@@]3(C)CCC[C@@]4(C)C(=O)O)(CC1=O)C2` (single isomer, unassigned; ent-16) [isosteviol, ent-16-ketobeyeran-19-oic acid], the “HDL cholesterol, End” value is given as 1.42 ± 0.08 MM in series [1] (setting [4]) and 2.45 ± 0.25 MM in series [2] (setting [11]). The entries for the “Total Cholesterol, End” value in series [1] (setting [4]) and in series [2] (setting [11]) were 1.67 ± 0.09 MM and 4.46 ± 0.37 MM, respectively. Also, the “HDL cholesterol, Start” value is 1.25 ± 0.06 MM in series [1] (setting [5]) and 1.34 ± 0.06 MM in series [2] (setting [12]). Further, the “Total Cholesterol, Start” value is listed as 1.61 ± 0.06 MM in series [1] (setting [5]) and 1.68 ± 0.1 MM in series [2] (setting [12]). The “HDL cholesterol Δ Abs” value in series [1] (Chow +Isosteviol, start to end) is on record as 0.17 ± 0.04 mM; in series [2] (setting [13]), 1.11 ± 0.26 mM. In addition, the “Total Cholesterol Δ Abs” value in series [1] (Chow +Isosteviol, start to end) came to 0.07 ± 0.06 mM; in series [2] (setting [13]), 2.77 ± 0.38 mM. The “plasma HDL-cholesterol level increase, Δ in %” value is on record as 14% in series [1] (start to end (20 weeks)), 14% in series [1] (setting [6]), 88% in series [2] (start to end (20 weeks)) and 88% in series [2] (setting [6]). Further, the “fasting total plasma cholesterol level increase, Δ in %” value in series [1] (setting [7]) is on record as 4%; in series [1] (chow diet + isosteviol, start to end (20 weeks), listed as Isosteviol) it was 4%; in series [2] (setting [14]) it was 175%; in series [2] (high fat diet + isosteviol, start to end (20 weeks), listed as Isosteviol) it was 175%. The “fasting total plasma cholesterol level Δ” value amounted to 0.07 ± 0.06 mmol/L in series [1] (setting [7]) and 2.77 ± 0.38 mmol/L in series [2] (setting [14]). Also, in series [1] (setting [8]), the “reduction in triglyceride concentration, Δchange in %” value was 61±18%. Also, in series [1] (setting [8]), the “reduction in triglyceride concentration, Δchange in absolute values” was -0.28 ± 0.10 mmol/L. In series [1] (group 2 (chow + isosteviol) compared to group 1 (chow control), 20 weeks), the “body weight reduced by” value is listed as 16%. Also, the “body weight, mean±SEM” value in series [1] (group 2, chow + isosteviol, 10 weeks of treatment) is 371 ± 10 g; in series [1] (group 2, chow + isosteviol, after 20 weeks of treatment), 388 ± 13 g. In addition, in series [1] (setting [9]), the “change in the fasting plasma triglyceride concentration” value is -0.16 ± 0.09 mmol/L. Besides, the “decrease in the fasting plasma triglyceride concentration” value in series [1] (setting [9]) came to 23%. The deaths result is “No deaths” in series [1] (group 2, chow diet + isosteviol, 20 weeks) and “No deaths” in series [2] (group 4, high fat diet + isosteviol, 20 weeks, two deaths in group 3 without isosteviol). Further, the “fasting plasma triglyceride (TG) level” value worked out at 1.25 mmol/L with KKAy mice (ISV group, age 5 week (start of treatment)) and 2.02 mmol/L with KKAy mice (ISV group, age 14 weeks (after 9 weeks treatment)). The “TG level increase, age 14 weeks compared to age 5 week” value in the series on KKAy mice (ISV group, KKAy control increased 192%) is 62%. Besides, the “fasting total plasma cholesterol level increased by” value in the series with KKAy mice (KKAy mice, 20 mg isosteviol/kg body weight/day in chow, after 9 weeks, vs KKAy control) stood at 28%. The “fasting plasma HDL-cholesterol, mean±SEM” value with KKAy mice (setting [10]) was found to be 2.999±0.091. Moreover, the “fasting plasma total cholesterol, mean±SEM” value with KKAy mice (setting [10]) stood at 3.055±0.067. Besides, in the series with KKAy mice (KKAy mice, 20 mg/kg BW/day, after 9 weeks, vs KKAy control), the “plasma HDL-cholesterol concentration increased by” value came to 71%. The “plasma TG decreased compared to the KKAy group” value with KKAy mice (after 9 weeks treatment) was determined as 48%. Moreover, in the series on KKAy mice (after 9 weeks treatment, KKAy control 41.6 g), the body weight turned out to be 36.3 g. Moreover, the reduction in weight in the series on KKAy mice (end of the 9 week treatment period, vs KKAy control) is reported as 13%. For the same compound, the “plasma HDL-cholesterol level Δ (SEM)” value in series [2] (setting [14]) turned out to be 1.11 ± 0.26 mmol/L.

Regarding `CCOC(=O)N1c2ccc(C(F)(F)F)cc2[C@@H](N(Cc2cc(C(F)(F)F)cc(C(F)(F)F)c2)C(=O)OC)C[C@H]1CC` [torcetrapib], in series [3], the mortality result is on record as “increased mortality”.

The values are drawn from US9314438B2, “Elevation of the plasma HDL-cholesterol level” (Aarhus Universitet, priority 2007, dated 2016).
